Test results reported in patent US11272709B2, “Amidine substituted benzoyl derivatives useful as herbicides” (Syngenta Participations AG, priority 2018, dated 2022).

Tests used:
Assay type in all cases: in vivo
[1] = Comparative experiment, compound 1.049 versus Compound C1, (%) phytotoxicity observed (Table B2); details: rate 31 g/ha; for (%) phytotoxicity observed, POST Application ECHCG / (%) phytotoxicity observed, PRE Application ECHCG: Echinochloa crus-galli (ECHCG); for (%) phytotoxicity observed, POST Application SETFA / (%) phytotoxicity observed, PRE Application SETFA: Setaria faberi (SETFA)
Description: Seeds of a variety of test species are sown in standard soil in pots (Lolium perenne (LOLPE), Amaranthus retoflexus (AMARE), Abutilon theophrasti (ABUTH), Setaria faberi (SETFA), Echinochloa crus-galli (ECHCG), Ipomoea hederacea (IPOHE)). After cultivation for one day (pre-emergence) or after 8 days cultivation (post-emergence) under controlled conditions in a glasshouse (at 24/16° C., day/night; 14 hours light; 65% humidity), the plants are sprayed with an aqueous spray solution derived from the formulation of the technical active ingredient in acetone/water (50:50) solution containing 0.5% Tween 20 (polyoxyethelyene sorbitan monolaurate, CAS RN 9005-64-5). Compounds are applied at […] unless otherwise indicated. The test plants are then grown in a glasshouse under controlled conditions in a glasshouse (at 24/16° C., day/night; 14 hours light; 65% humidity) and watered twice daily. After 13 days for pre and post-emergence, the test is evaluated for the percentage damage caused to the plant. The biological activities are shown in the following table on a five point scale (5=80-100%; 4=60-79%; 3=40-59%; 2=20-39%; 1=0-19%). [table]

[2] = system: Abutilon theophrasti (ABUTH); assay: Post-emergence herbicidal glasshouse test, Abutilon theophrasti (ABUTH); details: 500 g/h, evaluated after 13 days
How it was run: (§1)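 Plants sprayed 1 day (pre-emergence) or 8 days (post-emergence) after sowing, at 500 g/h unless indicated, in acetone/water (50:50) with 0.5% Tween 20. Glasshouse 24/16 °C, 14 h light, 65% humidity. Damage scored at 13 days on a five-point scale (5=80-100% to 1=0-19%).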

[3] = system: Ipomoea hederacea (IPOHE); assay: Post-emergence herbicidal glasshouse test, Ipomoea hederacea (IPOHE); details: 500 g/h, evaluated after 13 days
How it was run: as §1

[4] = system: Echinochloa crus-galli (ECHCG); assay: Post-emergence herbicidal glasshouse test, Echinochloa crus-galli (ECHCG); details: 500 g/h, evaluated after 13 days
How it was run: as §1

[5] = system: Amaranthus retoflexus (AMARE); assay: Post-emergence herbicidal glasshouse test, Amaranthus retoflexus (AMARE); details: 500 g/h, evaluated after 13 days
How it was run: as §1

Setaria faberi (SETFA) [6] = assay: Pre-emergence herbicidal glasshouse test, Setaria faberi (SETFA); details: 500 g/h, evaluated after 13 days
How it was run: as §1

[7] = system: Ipomoea hederacea (IPOHE); assay: Pre-emergence herbicidal glasshouse test, Ipomoea hederacea (IPOHE); details: 500 g/h, evaluated after 13 days
How it was run: as §1

[8] = system: Abutilon theophrasti (ABUTH); assay: Pre-emergence herbicidal glasshouse test, Abutilon theophrasti (ABUTH); details: 500 g/h, evaluated after 13 days
How it was run: as §1

[9] = system: Echinochloa crus-galli (ECHCG); assay: Pre-emergence herbicidal glasshouse test, Echinochloa crus-galli (ECHCG); details: 500 g/h, evaluated after 13 days
How it was run: as §1

[10] = system: Amaranthus retoflexus (AMARE); assay: Pre-emergence herbicidal glasshouse test, Amaranthus retoflexus (AMARE); details: 500 g/h, evaluated after 13 days
How it was run: as §1

Setaria faberi (SETFA) [11] = assay: Post-emergence herbicidal glasshouse test, Setaria faberi (SETFA); details: 500 g/h, evaluated after 13 days
How it was run: as §1

Row | SMILES | (%) phytotoxicity observed, POST Application ECHCG [1] [%] | (%) phytotoxicity observed, PRE Application ECHCG [1] [%] | (%) phytotoxicity observed, POST Application SETFA [1] [%] | (%) phytotoxicity observed, PRE Application SETFA [1] [%] | POST Application ABUTH, percentage damage (five point scale) [2] | POST Application IPOHE, percentage damage (five point scale) [3] | POST Application ECHCG, percentage damage (five point scale) [4] | POST Application AMARE, percentage damage (five point scale) [5] | PRE Application SETFA, percentage damage (five point scale) (Setaria faberi (SETFA) [6]) | PRE Application IPOHE, percentage damage (five point scale) [7] | PRE Application ABUTH, percentage damage (five point scale) [8] | PRE Application ECHCG, percentage damage (five point scale) [9] | PRE Application AMARE, percentage damage (five point scale) [10] | POST Application SETFA, percentage damage (five point scale) (Setaria faberi (SETFA) [11])
1 | Cn1nnnc1NC(=O)c1ccc(C(F)(F)F)c(N)c1Cl [Cl] | 0 | 0 | 20 | 0 | – | – | – | – | – | – | – | – | – | –
2 | CN(C)C=Nc1c(C(F)(F)F)ccc(C(=O)Nc2nnnn2C)c1Cl [Compound 1.049] | 90 | 90 | 90 | 90 | 5 (5=80-100%) | 5 (5=80-100%) | 5 (5=80-100%) | 5 (5=80-100%) | 5 (5=80-100%) | 5 (5=80-100%) | 5 (5=80-100%) | 5 (5=80-100%) | 5 (5=80-100%) | 5 (5=80-100%)
3 | Cc1c(C(=O)C2=C(O)CCCC2=O)ccc(S(C)(=O)=O)c1N=CN(C)C [Compound 3.025] | – | – | – | – | 5 (5=80-100%) | 5 (5=80-100%) | 5 (5=80-100%) | 5 (5=80-100%) | 4 (4=60-79%) | 4 (4=60-79%) | 5 (5=80-100%) | 5 (5=80-100%) | 5 (5=80-100%) | 5 (5=80-100%)
4 | CN(C)C=Nc1c(C(F)(F)F)ccc(C(=O)C2=C(O)CCCC2=O)c1Cl [Compound 3.049] | – | – | – | – | 5 (5=80-100%) | 5 (5=80-100%) | 5 (5=80-100%) | 5 (5=80-100%) | 5 (5=80-100%) | 5 (5=80-100%) | 5 (5=80-100%) | 5 (5=80-100%) | 5 (5=80-100%) | 5 (5=80-100%)
5 | CN(C)C=Nc1c(S(C)(=O)=O)ccc(C(=O)C2=C(O)CCCC2=O)c1Cl [Compound 3.057] | – | – | – | – | 5 (5=80-100%) | 5 (5=80-100%) | 5 (5=80-100%) | 5 (5=80-100%) | 5 (5=80-100%) | 5 (5=80-100%) | 5 (5=80-100%) | 5 (5=80-100%) | 5 (5=80-100%) | 5 (5=80-100%)
6 | CN(C=Nc1c(C(F)(F)F)ccc(C(=O)C2=C(O)CCCC2=O)c1Cl)CC(F)(F)F [Compound 3.130] | – | – | – | – | 5 (5=80-100%) | 4 (4=60-79%) | 5 (5=80-100%) | 5 (5=80-100%) | 5 (5=80-100%) | 5 (5=80-100%) | 5 (5=80-100%) | 5 (5=80-100%) | 5 (5=80-100%) | 5 (5=80-100%)
7 | CON=C(C)N(C)Cc1c(C(F)(F)F)ccc(C(=O)Nc2nnnn2C)c1Cl [Compound 4.014] | – | – | – | – | 5 (5=80-100%) | 5 (5=80-100%) | 5 (5=80-100%) | 5 (5=80-100%) | 5 (5=80-100%) | 5 (5=80-100%) | 5 (5=80-100%) | 5 (5=80-100%) | 5 (5=80-100%) | 5 (5=80-100%)
8 | CON=C(C)N(C)Cc1c(S(C)(=O)=O)ccc(C(=O)Nc2nnnn2C)c1Cl [Compound 4.016, 2-chloro-3-[[[N-methoxy-C-methyl-carbonimidoyl]-methyl-amino]methyl]-4-methylsulfonyl-N-(1-methyltetrazol-5-yl)benzamide] | – | – | – | – | 3 (3=40-59%) | 4 (4=60-79%) | 5 (5=80-100%) | 4 (4=60-79%) | 5 (5=80-100%) | 5 (5=80-100%) | 5 (5=80-100%) | 5 (5=80-100%) | 5 (5=80-100%) | 5 (5=80-100%)
9 | CON=C(C)N(C)Cc1c(S(C)(=O)=O)ccc(C(=O)Nc2nnc(C)o2)c1Cl [Compound 5.016] | – | – | – | – | 3 (3=40-59%) | 4 (4=60-79%) | 5 (5=80-100%) | 4 (4=60-79%) | 5 (5=80-100%) | 5 (5=80-100%) | 5 (5=80-100%) | 5 (5=80-100%) | 5 (5=80-100%) | 5 (5=80-100%)
10 | CCCn1nnnc1NC(=O)c1ccc(S(C)(=O)=O)c(N=CN(C)C)c1C [Compound 7.002] | – | – | – | – | 5 (5=80-100%) | 4 (4=60-79%) | 5 (5=80-100%) | 5 (5=80-100%) | 5 (5=80-100%) | 5 (5=80-100%) | 5 (5=80-100%) | 5 (5=80-100%) | 5 (5=80-100%) | 5 (5=80-100%)
11 | COCCn1nnnc1NC(=O)c1ccc(S(C)(=O)=O)c(N=CN(C)C)c1C [Compound 7.003] | – | – | – | – | 5 (5=80-100%) | 5 (5=80-100%) | 5 (5=80-100%) | 5 (5=80-100%) | 5 (5=80-100%) | 5 (5=80-100%) | 5 (5=80-100%) | 5 (5=80-100%) | 5 (5=80-100%) | 5 (5=80-100%)
